In PMC3653620 (Investigative radiology, 2012):
“Also recorded” adds a separate entry of the source. Read-outs that look alike come from different tables or passages of the source. Where a SMILES comes first, the peptide text is derived from it. Bridges are numbered along the chain shown (N, C = ends). [ ]: non-standard residue; d: D form. The star is where a group is joined. X1 = O=C(O)CN1CCN(CC(=O)O)CCN(C(CCC(=O)NCC[C@H](NC(=O)CCC(C(=O)O)N2CCN(CC(=O)O)CCN(CC(=O)O)CCN(CC(=O)O)CC2)C(=O)NCc2ccc(CN*)cc2)C(=O)O)CCN(CC(=O)O)CC1; DOTAGA = O=C(O)CN1CCN(CC(=O)O)CCN(C(CCC(=O)*)C(=O)O)CCN(CC(=O)O)CC1; Tyr(3-Cl) = N[C@@H](Cc1ccc(O)c(Cl)c1)C(=O)O; Hyp = O=C(O)[C@@H]1C[C@@H](O)CN1; Dab = NCC[C@H](N)C(=O)O

Legend:
[1] = tested on: tumor periphery (breast cancer xenograft, BT-20); assay: Contrast agent washout from tumor periphery, T1-weighted MRI at 9.4T; type: in vivo, nude mice; human adenocarcinoma BT-20 cell line; details: for retention in the tumor periphery / washout, in words: Gd-DTPA 200, EP-2104R or CLP 20 μmol/kg i.v.; for t1/2 in the tumor periphery: CNR vs time
[2] = tested on: tumor core (breast cancer xenograft, BT-20); assay: Contrast agent washout from tumor core, T1-weighted MRI at 9.4T; type: in vivo, nude mice; human adenocarcinoma BT-20 cell line
[3] = cited from earlier work; for relaxivity at 9.4T: per molecule
blood plasma proteins = details: cited from earlier work
[4] = cited from earlier work
[5] = tested on: thrombi in the heart chambers, arteries or veins; details: animal models and clinical trials; ref [32]-[43]; cited from earlier work

With `CC[C@H](C)[C@H](NC(=O)[C@H](Cc1ccc(O)cc1)NC(=O)[C@@H]1CSSC[C@H](NC(=O)[C@@H](CCC(=O)O)NC(=O)[C@H](Cc2ccc(O)cc2)NC(=O)[C@H](CCNC(=O)CCC(C(=O)O)N2CCN(CC(=O)O)CCN(CC(=O)O)CCN(CC(=O)O)CC2)NC(=O)CCC(C(=O)O)N2CCN(CC(=O)O)CCN(CC(=O)O)CCN(CC(=O)O)CC2)C(=O)N2C[C@H](O)C[C@H]2C(=O)N[C@@H](Cc2ccc(O)c(Cl)c2)C(=O)NCC(=O)N[C@@H](CC(C)C)C(=O)N1)C(=O)N[C@@H](CCC(N)=O)C(=O)NCc1ccc(CNC(=O)[C@H](CCNC(=O)CCC(C(=O)O)N2CCN(CC(=O)O)CCN(CC(=O)O)CCN(CC(=O)O)CC2)NC(=O)CCC(C(=O)O)N2CCN(CC(=O)O)CCN(CC(=O)O)CCN(CC(=O)O)CC2)cc1` (stereo partly drawn) [EP-2104R] ({DOTAGA}-[Dab](DOTAGA)Y[dE]C[Hyp][Tyr(3-Cl)]GLCYIQ-X1; disulfide 4-9; N-terminus and C-terminus assumed) the “retention in the tumor periphery / washout, in words” value ([1]; 9.4T) was “stays in the tumor periphery much longer than Gd-DTPA or CLP; also recorded: significantly longer retained in the tumor periphery; also recorded: retained significantly longer in the tumor periphery than either Gd-DTPA or CLP”, the “duration of persistent enhancement of the tumor periphery” value ([1]; after EP-2104R injection, 20 μmol/kg i.v., FLASH images, 9.4T) was at least 90 min and the “variability of washout from the tumor periphery” value ([1]; in vivo) was “varied several fold across this ROI”. The “washout from the tumor periphery, % slower than Gd-DTPA” value ([1]; in vivo) was 190±75%, the “washout from the tumor periphery, fold slower than CLP” value ([1]; in vivo) was 5 fold and the “Half-life in the tumor periphery (mean ± SEM)” value ([1]; in vivo, iv) was 103 ± 18 min. The “t1/2 in the tumor periphery, Mean (St Dev)” value ([1]; in vivo, iv) was 103 (53) min, the enhancement of tumor ([2]; EP-2104R 20 μmol/kg i.v., transient, tumor core and periphery, 9.4T) was “transiently enhanced both the tumor core and periphery” and the “washout from the tumor core, % slower than Gd-DTPA” value ([2]; in vivo) was 20%. For the same compound, the “t1/2, washout from the tumor core” value ([2]; mouse, in vivo, iv) was 45 ± 9 min, the “relaxivity at 9.4T, per Gd” value ([3]; 9.4T, per Gd, ref [48],[49]) was 6.4 mM⁻¹ s⁻¹ and the “relaxivity at 9.4T” value ([3]; 9.4T, ref [48],[49]) was 25.6 mM⁻¹ s⁻¹. The “relaxivity of fibrin-bound probe at 9.4T vs clinical field strengths” value ([3]; fibrin-bound, 9.4T vs clinical field strengths, ref [22],[48]) was “much lower at this field compared to clinical field strengths”, the “affinity for blood plasma proteins” value (blood plasma proteins) was “only very low affinity for blood plasma proteins” and the excretion ([4]; in vivo) was “exclusive renal excretion”. The identification of thrombi [5] was “efficacious in identifying thrombi in the heart chambers, arteries or veins”.

With `CNC[C@H](O)[C@@H](O)[C@H](O)[C@H](O)CO.CNC[C@H](O)[C@@H](O)[C@H](O)[C@H](O)CO.O=C([O-])CN(CCN(CC(=O)[O-])CC(=O)O)CCN(CC(=O)[O-])CC(=O)O.[Gd+3]` [Gd-DTPA, Gadopentetate dimeglumine] the “retention in the tumor periphery / washout, in words” value ([1]; 9.4T) was “not retained in the tumor periphery; also recorded: significantly faster washout than EP-2104R”, the “half-life in tumor periphery compared with EP-2104R” value ([1]; all animals, p<0.05 for both) was “significantly shorter” and the “variability of washout from the tumor periphery” value ([1]; among all the mice, or across the tumor periphery ROI in some mice) was “very similar among all the mice”. For the same compound, the “t1/2 in the tumor periphery” value ([1]; animal 3, Gd-DTPA 200 μmol/kg then EP-2104R 20 μmol/kg i.v., 9.4T) was 27 min, the “t1/2 in the tumor periphery” value ([1]; animal 4, Gd-DTPA 200 μmol/kg then EP-2104R 20 μmol/kg i.v., 9.4T) was 38 min and the “t1/2 in the tumor periphery” value ([1]; animal 5, Gd-DTPA 200 μmol/kg then EP-2104R 20 μmol/kg i.v., 9.4T) was 26 min. For the same compound, the “t1/2 in the tumor periphery” value ([1]; animal 6, Gd-DTPA 200 μmol/kg then EP-2104R 20 μmol/kg i.v., 9.4T) was 23 min, the “t1/2 in the tumor periphery” value ([1]; animal 7, Gd-DTPA 200 μmol/kg then EP-2104R 20 μmol/kg i.v., 9.4T) was 38 min and the “t1/2 in the tumor periphery” value ([1]; animal 8, Gd-DTPA 200 μmol/kg then EP-2104R 20 μmol/kg i.v., 9.4T) was 41 min. The “t1/2 in the tumor periphery” value ([1]; animal 9, Gd-DTPA 200 μmol/kg then CLP 20 μmol/kg i.v., 9.4T) was 29 min, the “t1/2 in the tumor periphery” value ([1]; animal 10, Gd-DTPA 200 μmol/kg then CLP 20 μmol/kg i.v., 9.4T) was 20 min and the “t1/2 in the tumor periphery” value ([1]; animal 11, Gd-DTPA 200 μmol/kg then CLP 20 μmol/kg i.v., 9.4T) was 27 min. The “t1/2, washout from the tumor core” value ([2]; 3 mice, Gd-DTPA 200 μmol/kg followed by CLP 20 μmol/kg i.v., ±SEM, p=0.35) was 28 ± 5 min, the “t1/2, washout from the tumor core” value ([2]; 6 mice, Gd-DTPA 200 μmol/kg followed by EP-2104R 20 μmol/kg i.v., ±SEM, p=0.17) was 38 ± 9 min and the “relaxivity at 9.4T” value ([3]; 9.4T, ref [48],[49]) was 3.7 mM⁻¹ s⁻¹. For the same compound, the “affinity for blood plasma proteins” value (blood plasma proteins; ref [22],[33]) was “only very low affinity for blood plasma proteins” and the excretion ([4]; ref [22],[33]) was “exclusive renal excretion”.
